Source: patent US20210087620A1, “Target Gene Identifying Method for Tumor Treatment” (Samsung Life Public Welfare Foundation Samsung Life Public …, priority 2017, published 2021)

Key:
[1] = tested on: right tumor-derived cells of the GBM9 patient; assay: PDC-based chemical screening (ATP cell viability, dose-response AUC), right tumor; design: species or system human; settings: GBM9 right tumor PDCs
Experimental: (§1) According to one embodiment, the measuring of drug sensitivity of each sample by subjecting the multiple samples to drug screening may include obtaining a cell viability curve of each sample according to a dose of each drug; and calculating an area under the curve.
(§2) GBM9 patient had tumors in the right and left frontal lobes of the brain, respectively. In this regard, 40 kinds of anticancer agents were administered to samples collected from the respective tumors, and tumor cell viability was examined.
(§3) When a curve of tumor cell viability vs drug dose is plotted, an area under the curve (AUC) may be used as an index of drug sensitivity. […]
(§4) PDCs grown in serum-free medium were seeded in 384 well plates at a density of 500 cells per well in duplicate or triplicate. […] After 6 days of incubation at 37° C. in a 5% CO2 humidified incubator, cell viability was analyzed using an adenosine triphosphate (ATP) monitoring system based on firefly luciferase (ATPLite™ 1step, PerkinElmer). At this time, viable cells were estimated using an EnVision Multilabel Reader (PerkinElmer). […] DRC fitting was performed using GraphPad Prism 5 (GraphPad) and evaluated by measuring an area under the curve (AUC) of dose response curve. After normalization, best-fit lines were determined and the AUC value of each curve was calculated using a GraphPad Prism. […]

[2] = tested on: left tumor-derived cells of the GBM9 patient; assay: PDC-based chemical screening (ATP cell viability, dose-response AUC), left tumor; design: species or system human; settings: GBM9 left tumor PDCs
Experimental: as §1, §2, §3, §4

[3] = 6 days, 20 μM to 4.88 nM, FIG. 6

## Nc1cc(C(F)(F)F)c(-c2cc(N3CCOCC3)nc(N3CCOCC3)n2)cn1 [BKM120, Buparlisib]
[1]; [3]
  survival rate of tumor cells with increasing drug dose: survival rates of the two tumors decreased
[1]; FIG. 6, FIG. 7
  area under the curve (AUC) of cell viability vs dose (low AUC = high drug sensitivity): relatively low
[2]; [3]
  survival rate of tumor cells with increasing drug dose: survival rates of the two tumors decreased
[2]; FIG. 6, FIG. 7
  area under the curve (AUC) of cell viability vs dose (low AUC = high drug sensitivity): relatively low
